Reference: patent US20240417486A1, “ASYMMETRIC BIS-BENZIMIDAZOLE STING AGONIST IMMUNOCONJUGATES AND USES THEREOF” (BOLT BIOTHERAPEUTICS, INC., priority 2021, published 2024)

Each molecule was assayed against human STING WT (6His-tagged STING protein) (Homo sapiens (Human), UniProt Q86WV6) (assay: HTRF binding assay (STING binding assay)). Conditions: inhibition of d2-labeled 2',3'-cGAMP binding to 6His-tagged STING.
Protocol: Example 202 HTRF Binding Assay
Asymmetric bis-benzimidazole compounds (BBI) of the invention were assessed in a biochemical homogeneous time resolved fluorescence (HTRF) binding assay adapted from the human STING WT binding assay (“HTRF, A guide to Homogeneous Time Resolved Fluorescence”, (2021) PerkinElmer Cisbio; Mathis, G. Clinical Chemistry, 41(9):1391-1397). Briefly, 6His-tagged STING protein was incubated with terbium cryptate-labeled anti-6His antibody, d2-labeled 2′,3′-cGAMP, and varying concentrations of test articles in a 384-well plate format. Donor and acceptor emission signals were measured for each well by plate reader at […], respectively, and the ratio of the signals used to calculate percent inhibition of d2-labeled 2′,3′-cGAMP, cyclic dinucleotide binding.

human STING WT (6His-tagged STING protein), sequence (Q86WV6 whole entry): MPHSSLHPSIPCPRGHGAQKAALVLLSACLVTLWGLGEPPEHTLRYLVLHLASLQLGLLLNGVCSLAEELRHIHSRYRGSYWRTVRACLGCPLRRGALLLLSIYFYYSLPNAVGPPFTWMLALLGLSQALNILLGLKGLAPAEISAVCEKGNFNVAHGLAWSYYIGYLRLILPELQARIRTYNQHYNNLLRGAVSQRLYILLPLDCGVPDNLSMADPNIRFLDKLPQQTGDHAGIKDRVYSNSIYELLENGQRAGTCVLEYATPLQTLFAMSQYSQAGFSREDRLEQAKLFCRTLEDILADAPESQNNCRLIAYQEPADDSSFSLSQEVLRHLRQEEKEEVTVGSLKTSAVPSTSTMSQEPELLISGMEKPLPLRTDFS

| IC50 [µM] | Compound |
| --- | --- |
| 0.057 | CCn1nc(C)cc1C(=O)Nc1nc2cc(C(N)=O)cc(OCCCn3c(NC(=O)c4cc(C)nn4CC)nc4cc(C(N)=O)cc(OC)c43)c2n1C [BBI-1, 1-(3-((5-carbamoyl-2-(1-ethyl-3-methyl-1H-pyrazole-5-carboxamido)-1-methyl-1H-benzo[d]imidazol-7-yl)oxy)propyl)-2-(1-ethyl-3-methyl-1H-pyrazole-5-carboxamido)-7-methoxy-1H-benzo[d]imidazole-5-carboxamide] |
| 0.073 | CCn1nc(C)cc1C(=O)Nc1nc2cc(C(N)=O)cc(OCCCCn3c(NC(=O)c4cc(C)nn4CC)nc4cc(C(N)=O)cc(OC)c43)c2n1C [BBI-2, 1-[4-[6-carbamoyl-2-[(2-ethyl-5-methyl-pyrazole-3-carbonyl)amino]-3-methyl-benzimidazol-4-yl]oxybutyl]-2-[(2-ethyl-5-methyl-pyrazole-3-carbonyl)amino]-7-methoxy-benzimidazole-5-carboxamide] |
| 0.25 | CCn1nc(C)cc1C(=O)Nc1nc2cc(C(N)=O)cc(OCCCCn3c(NC(=O)c4cc(C)nn4CC)nc4cc(C(N)=O)cc(OCCCN5CCNCC5)c43)c2n1C [BBI-3, 1-(4-((5-carbamoyl-2-(1-ethyl-3-methyl-1H-pyrazole-5-carboxamido)-1-methyl-1H-benzo[d]imidazol-7-yl)oxy)butyl)-2-(1-ethyl-3-methyl-1H-pyrazole-5-carboxamido)-7-(3-(piperazin-1-yl)propoxy)-1H-benzo[d]imidazole-5-carboxamide] |
| 0.44 | CCn1nc(C)cc1C(=O)Nc1nc2cc(C(N)=O)cc(OCCCn3c(NC(=O)c4cc(C)nn4CC)nc4cc(C(N)=O)ccc43)c2n1C [BBI-4] |
| 0.21 | CCn1nc(C)cc1C(=O)Nc1nc2cc(C(N)=O)cc(OCCn3c(NC(=O)c4cc(C)nn4CC)nc4cc(C(N)=O)cc(OC)c43)c2n1C [BBI-5] |
| 0.051 | CCn1nc(C)cc1C(=O)Nc1nc2cc(C(N)=O)cc(OCCCn3c(NC(=O)c4cc(C)nn4CC)nc4cc(C(N)=O)cc(OCCCN5CCNCC5)c43)c2n1C [BBI-6] |
| 0.15 | CCn1nc(C)cc1C(=O)Nc1nc2cc(C(N)=O)cc(OC/C=C/Cn3c(NC(=O)c4cc(C)nn4CC)nc4cc(C(N)=O)cc(OCCCN5CCNCC5)c43)c2n1C [BBI-7] |
